Data taken from US4017606A, “Organic compounds and process” (The Upjohn Company, priority 1975, dated 1977).
Blank lines part the entries; values can stand above or below the compound they belong to.

Columns and labels:
liver deaminase = assay: Deamination of cytosine arabinoside in rhesus monkey blood by liver deaminase; type: biochemical; conditions: one part of tetrahydrouridine to 820 parts of cytosine arabinoside
Description: (§1) This is especially reflected in a drop in the blood level of cytosine arabinoside, usually concomitant with an increase in uracil arabinoside. This destruction of cytosine arabinoside is brought about by a deaminase enzyme present in the blood and tissues of the animal. […] For example, deamination of cytosine arabinoside in rhesus monkey blood by liver deaminase was inhibited about 90% by the addition of one part of 4-hydroxyl-1-β-D-ribofuranosyl-tetrahydro-2(1H)-pyrimidinone (tetrahydrouridine) to 820 parts of cytosine arabinoside.

[1] = Serum half life of cytosine arabinoside in beagle dogs with or without tetrahydrouridine; conditions: dog, in vivo
Description: as §1

[2] = molecular target: deaminase enzymes (centrifuged 25 percent homogenate of normal human liver) (Homo sapiens, UniProt P32320); assay: Competitive efficacy (C.E.) test: inhibition of cytosine arabinoside deamination; conditions: 1.0 micromole tritiated Ca, pH 8.0, 37° C., 45 minutes
Description: The inhibition of cytosine arabinoside deamination by a compound is conveniently expressed in terms of its competitive efficacy (C.E.). The competitive efficacy of a compound is determined as follows:
Enzyme reaction mixture are prepared in 12-ml. centrifuge tubes in an ice bath. […] This is the standard reaction mixture. […] The tubes are then assayed for radioactive uracil arabinoside as described below, and the percent conversion of tritiated Ca to tritiated uracil arabinosie is calculated. A standard curve of the percent conversion vs. log10 of the initial ratio of untritiated Ca to tritiated Ca is plotted. This is the standard curve for the C.E. test.
Reaction mixture for C.E. test.
To determine the C.E. of a compound, known amounts of the compound are added to the above standard reaction mixture and the percent conversion of tritiated Ca to tritiated uracil arabinoside is measured. […] From this ratio and the amount of test compound in the assay reaction mixture, the C.E. is calculated. […]
After 45 minute incubation of the enzyme reaction mixtures, further reaction is stopped by the addition of one-half volume of iced, 15 percent trichloroacetic acid. […] Suitable quantities (4 microliters) of clear supernatant solution are co-chromatographed with a mixture of 40 millimicromoles each of non-tritiated carrier Ca and uracil arabinoside on Whatman No. 40 paper. […]

myelogenous leukemia = conditions: adults; 1 to 5 mg./kg. weekly intravenously or subcutaneously as maintenance; cited from earlier work

deaminase enzymes (centrifuged 25 percent homogenate of normal human liver), sequence (P32320 whole entry): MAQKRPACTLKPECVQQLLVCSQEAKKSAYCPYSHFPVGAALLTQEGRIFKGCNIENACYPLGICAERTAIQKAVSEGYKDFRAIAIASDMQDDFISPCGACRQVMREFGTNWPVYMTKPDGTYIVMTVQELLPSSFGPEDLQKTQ

inhibition of deamination of cytosine arabinoside (liver deaminase): about 90%
half life of cytosine arabinoside in the serum ([1]; iv): 2.27 to 3 h
Structure (SMILES): O=C1NC(O)CCN1[C@@H]1O[C@H](CO)[C@@H](O)[C@H]1O (single isomer, unassigned) [tetrahydrouridine, 4-hydroxy-1-β-D-ribofuranosyl-tetrahydro-2(1H)-pyrimidinone]

Competitive Efficacy [2]: 200
Structure (SMILES): O=C1NCCCN1[C@@H]1O[C@H](CO)[C@@H](O)[C@H]1O [E]

Structure (SMILES): Nc1ccn([C@@H]2O[C@H](CO)[C@@H](O)[C@@H]2O)c(=O)n1 [cytosine arabinoside, 1-β-D-arabinofuranosylcytosine, reference compound]
half-life ([1]; control dogs without tetrahydrouridine, 50 mg./kg. cytosine arabinoside intravenous): 1.1 to 1.33 h
duration of remission of myelogenous leukemia (bone marrow response) (myelogenous leukemia): more than 203 days
